Experimental findings from patent US12173018B2, “Penicillin-binding protein inhibitors” (priority 2018, dated 2024) are described below.

Converted amounts (≈) assume the structure as drawn. Counter-ions that a name gives are not always drawn. Like-named read-outs stand apart in the source and are kept apart here. Some results are limits rather than exact numbers.

One assay has as its system E. coli ATCC 25922. Nature of the assay: Broth microdilution MIC, E. coli ATCC 25922. It counts as cell-based. Conditions: Escherichia coli. The essentials: (§1)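 Following CLSI guidance, growth inhibition is measured in Mueller-Hinton broth with divalent cations. Inoculum 5×10^5 CFU/mL; incubation 16-20 hours, 37° C; endpoint is visual absence of growth.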
The subject of the next assay is E. coli AG100. Nature of the assay: Broth microdilution MIC, E. coli AG100 (wild-type parent). Conditions: Escherichia coli; wild-type parent E. coli AG100, broth microdilution; read-out: MIC E. coli AG100. The format is cell-based. The essentials: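 Broth microdilution in cation-supplemented Mueller-Hinton broth, 2-fold serial compound dilutions, inoculum 5×10^5 CFU/mL from 3-5 h log culture.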

The next assay has as its system E. coli 901C. The experiment in a line: microbe, parasite or virus in culture. It counts as cell-based. Conditions: Escherichia coli; hyper-permeable E. coli 901C, broth microdilution; read-out: MIC E. coli 901C. The essentials: as §1
(Broth dilution looks for growth in wells or tubes with falling amounts of substance.)

Another assay has as its system E. coli AG100A. Nature of the assay: microbe, parasite or virus in culture. It counts as cell-based. Particulars: Escherichia coli, read-out: MIC E. coli AG100A. The essentials: as §1
The next assay relates to K. pneumoniae UMM. Nature of the assay: microbe, parasite or virus in culture. It counts as cell-based. Particulars: Klebsiella pneumoniae; K. pneumoniae UMM producing SHV-5 and KPC-2; read-out: MIC K. pneumoniae UMM. The essentials: as §1
In assay [1] the test system is engineered strain of Escherichia coli harboring CTX-M15. Nature of the assay: microbe, parasite or virus in culture. The format is cell-based. Particulars: for MIC: Escherichia coli, read-out: Microbiological Activity (MIC in mg/L), E. coli DH5α/pLBII-CTX-M15, engineered strain producing CTX-M15.
Assay [2] deals with E. coli DH5α empty pLBII vector control strain. The experiment in a line: microbe, parasite or virus in culture. It counts as cell-based, Escherichia coli. Conditions: for MIC: Escherichia coli, read-out: Microbiological Activity (MIC in mg/L), E. coli DH5α/pLBII. Here is the method:
Briefly, cryo-preserved bacterial cultures of challenge strains are streaked for isolation on appropriate agar medium, in this case Mueller Hinton II agar. Following incubation to allow growth of the colonies, plates are sealed with parafilm and stored refrigerated for up to two weeks. For preparation of assay inoculum and to ensure low variability, at least 5 colonies are picked from the agar plates with an inoculating loop and aseptically transferred to a culture tube containing 3 mL of Mueller-Hinton Broth (supplemented with divalent cations to required levels based on Manufacturers' certification). The broth culture is grown for 3-5 hours at 37° C. with shaking at 200 rpm. Meanwhile, 2-fold serial dilutions of test compounds are conducted in a 96 well plate with a final volume of 75 μL per well at 2-fold the final desired concentration. After the dilution plates are set up the growing cultures are then diluted in a cuvette containing MH II broth and the optical density is measured at 600 nm. The Inoculum is diluted such that 75 μL of this culture in Mueller-Hinton Broth results in a starting bacterial concentration of 5×10^5 CFU/mL when added to the dilution plates. The plates are incubated for 16-20 hours at 37° C. The MIC values are read visually as the lowest concentration well with no bacterial growth.
To determine if test compounds were affected by CTX-M15, the most abundant extended spectrum […] in clinical settings worldwide, the inhibition of the growth of an engineered strain of Escherichia coli harboring CTX-M15 was tested. This strain was constructed by cloning the gene encoding CTX-M15 into the NdeI and BamHI restriction endonuclease sites of plasmid pLBII, placing the gene(s) under the control of the Lac promoter. The constructed expression plasmid for CTX-M15 was used to transform competent E. coli DH5α cells to make the engineered strain, including an empty pLBII vector control strain. The classic cell based broth microdilution MIC assay was employed as described above with the addition of control antibiotics, known to be degraded by β-lactamases (Ceftazidime, piperacillin and piperacillin+tazobactam).

The target in the next assay is E. coli PBP3 (Escherichia coli (strain K12), UniProt P0AD68). The experiment in a line: E. coli PBP3 Bocillin-FL fluorescence polarization competition binding assay. The essentials:
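Polarization at 490/520 nm was monitored for 60 minutes in pH 8.0 Hepes buffer containing 300 mM NaCl and 5% glycerol, with compound spanning 0–1000 μM.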
For orientation: Fluorescence polarisation rises when a labelled molecule tumbles more slowly, as on binding a larger partner.

The mark [3] stands for this setting: ATCC25922, read-out: MIC E. coli 25922.

E. coli PBP3, sequence (P0AD68 whole entry): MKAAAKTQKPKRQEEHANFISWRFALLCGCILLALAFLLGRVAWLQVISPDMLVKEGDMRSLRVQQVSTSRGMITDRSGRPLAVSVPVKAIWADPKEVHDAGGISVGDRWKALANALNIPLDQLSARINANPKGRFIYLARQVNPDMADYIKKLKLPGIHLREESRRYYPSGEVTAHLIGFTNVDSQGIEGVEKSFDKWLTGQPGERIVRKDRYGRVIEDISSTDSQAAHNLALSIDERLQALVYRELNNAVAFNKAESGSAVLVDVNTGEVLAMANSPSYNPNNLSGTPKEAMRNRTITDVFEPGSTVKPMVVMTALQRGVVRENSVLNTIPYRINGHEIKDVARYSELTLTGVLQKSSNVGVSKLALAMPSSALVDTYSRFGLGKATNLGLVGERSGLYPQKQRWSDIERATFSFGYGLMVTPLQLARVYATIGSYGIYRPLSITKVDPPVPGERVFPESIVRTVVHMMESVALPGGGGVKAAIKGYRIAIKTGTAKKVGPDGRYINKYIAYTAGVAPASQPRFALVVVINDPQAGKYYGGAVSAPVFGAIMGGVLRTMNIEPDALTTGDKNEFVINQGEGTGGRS

In the case of `CCN1CCN(C(=O)N2C[C@@H](O)C[C@@H]2C(=O)N[C@H]2Cc3cccc(C(=O)O)c3OB2O)C(=O)C1=O` [Example 9, (R)-3-((2R,4S)-1-(4-ethyl-2,3-dioxopiperazine-1-carbonyl)-4-hydroxypyrrolidine-2-carboxamido)-2-hydroxy-3,4-dihydro-2H-benzo[e][1,2]oxaborinine-8-carboxylic acid], the MIC was greater than 128 µg/mL in the assay with E. coli ATCC 25922 (setting [3]); greater than 128 µg/mL in the assay on E. coli AG100; greater than 128 µg/mL in the assay with E. coli 901C; greater than 128 µg/mL in the assay with E. coli AG100A; greater than 128 µg/mL in the assay with K. pneumoniae UMM; greater than 512 mg/L in assay [1]. The MIC in assay [2] was greater than 512 mg/L.

Turning to `CCN1CCN(C(=O)NC(C(=O)N[C@H]2Cc3cccc(C(=O)O)c3OB2O)c2nsc(N)n2)C(=O)C1=O` (stereo partly drawn) [Example 10, (3R)-3-(2-(5-amino-1,2,4-thiadiazol-3-yl)-2-(4-ethyl-2,3-dioxopiperazine-1-carboxamido)acetamido)-2-hydroxy-3,4-dihydro-2H-benzo[e][1,2]oxaborinine-8-carboxylic acid], the MIC in the assay on E. coli ATCC 25922 (setting [3]) was 8 to 16 µg/mL; in the assay with E. coli AG100, 32 to 64 µg/mL; with E. coli 901C, 0.5 to 1 µg/mL; in the assay on E. coli AG100A, 2 to 4 µg/mL; with K. pneumoniae UMM it was 8 to 16 µg/mL; in assay [1], 8 to 16 mg/L (≈ 15.1 to 30.1 µM). Besides, in assay [2], the MIC is 8 to 16 mg/L (≈ 15.1 to 30.1 µM).

In the case of `CCN1CCN(C(=O)NC(C)(CCO)C(=O)N[C@H]2Cc3cccc(C(=O)O)c3OB2O)C(=O)C1=O` (stereo partly drawn) [Example 12, (3R)-3-(2-(4-ethyl-2,3-dioxopiperazine-1-carboxamido)-4-hydroxy-2-methylbutanamido)-2-hydroxy-3,4-dihydro-2H-benzo[e][1,2]oxaborinine-8-carboxylic acid], the MIC in assay [1] and in assay [2] was greater than 512 mg/L throughout.

Regarding `Nc1nc(C(NC(=O)N2CCN(CCF)C(=O)C2=O)C(=O)N[C@H]2Cc3cccc(C(=O)O)c3OB2O)c(Cl)s1` (stereo partly drawn) [Example 13, (3R)-3-(2-(2-amino-5-chlorothiazol-4-yl)-2-(4-(2-fluoroethyl)-2,3-dioxopiperazine-1-carboxamido)acetamido)-2-hydroxy-3,4-dihydro-2H-benzo[e][1,2]oxaborinine-8-carboxylic acid], on E. coli PBP3, the EC50 (commonly the concentration at which the effect is half-maximal) fell in the range of 30 to 500 µM. Besides, the MIC was 32 to 64 µg/mL with E. coli ATCC 25922 (ATCC25922, E. coli ATCC 25922, broth microdilution, read-out: MIC E. coli 25922); 32 to 64 µg/mL in the assay on E. coli AG100; less than 0.25 µg/mL in the assay with E. coli 901C; 2 to 4 µg/mL in the assay on E. coli AG100A; 32 to 64 µg/mL in the assay on K. pneumoniae UMM; 8 to 16 mg/L (≈ 13.7 to 27.5 µM) in assay [1]. Moreover, in assay [2], the MIC lay in the range of 8 to 16 mg/L (≈ 13.7 to 27.5 µM).

On to `CCN1CCN(C(=O)N2CC(CN)(C(=O)N[C@H]3Cc4cccc(C(=O)O)c4OB3O)C2)C(=O)C1=O` [Example 14, (R)-3-(3-(aminomethyl)-1-(4-ethyl-2,3-dioxopiperazine-1-carbonyl)azetidine-3-carboxamido)-2-hydroxy-3,4-dihydro-2H-benzo[e][1,2]oxaborinine-8-carboxylic acid, trifluoroacetic acid salt], for which the MIC in assay [1] and in assay [2] was greater than 512 mg/L in each case.

`CCN1CCN(C(=O)NCC(CN)(CO)C(=O)N[C@H]2Cc3cccc(C(=O)O)c3OB2O)C(=O)C1=O` (stereo partly drawn) [Example 15, (3R)-3-(3-amino-2-((4-ethyl-2,3-dioxopiperazine-1-carboxamido)methyl)-2-(hydroxymethyl)propanamido)-2-hydroxy-3,4-dihydro-2H-benzo[e][1,2]oxaborinine-8-carboxylic acid, trifluoroacetic acid salt]: the MIC in assay [1] and in assay [2] was greater than 512 mg/L in each case.

`CCN1CCN(C(=O)NC(C(=O)N[C@H]2Cc3cccc(C(=O)O)c3OB2O)c2csc(N)n2)CC1=O` (stereo partly drawn) [Example 18, (3R)-3-(2-(2-aminothiazol-4-yl)-2-(4-ethyl-3-oxopiperazine-1-carboxamido)acetamido)-2-hydroxy-3,4-dihydro-2H-benzo[e][1,2]oxaborinine-8-carboxylic acid]: at E. coli PBP3, the EC50 lay in the range of 30 to 500 µM. In addition, the MIC in assay [1] and in assay [2] was 128 to 256 mg/L (≈ 248 to 496 µM) each time.

`CCN1CCN(C(=O)C[C@H](N)C(=O)N[C@H]2Cc3cccc(C(=O)O)c3OB2O)C(=O)C1=O` [Example 19, (R)-3-((S)-2-amino-4-(4-ethyl-2,3-dioxopiperazin-1-yl)-4-oxobutanamido)-2-hydroxy-3,4-dihydro-2H-benzo[e][1,2]oxaborinine-8-carboxylic acid]: the MIC in assay [1] and in assay [2] was greater than 512 mg/L in each case.

As to `CCN1CCN(C(=O)NC(C(=O)N[C@H]2Cc3cccc(C(=O)O)c3OB2O)c2ccc(OC)c(OC)c2)C(=O)C1=O` (stereo partly drawn) [Example 21, (3R)-3-(2-(3,4-dimethoxyphenyl)-2-(4-ethyl-2,3-dioxopiperazine-1-carboxamido)acetamido)-2-hydroxy-3,4-dihydro-2H-benzo[e][1,2]oxaborinine-8-carboxylic acid], the EC50 at E. coli PBP3 lay within 30 to 500 µM. Also, the MIC in assay [1] and in assay [2] was 128 to 256 mg/L (≈ 225 to 450 µM) in each case.

As for `CCN1CCN(C(=O)N2C[C@H](O)C[C@@H]2C(=O)N[C@H]2Cc3cccc(C(=O)O)c3OB2O)C(=O)C1=O` [Example 28, (R)-3-((2R,4R)-1-(4-ethyl-2,3-dioxopiperazine-1-carbonyl)-4-hydroxypyrrolidine-2-carboxamido)-2-hydroxy-3,4-dihydro-2H-benzo[e][1,2]oxaborinine-8-carboxylic acid], the MIC in assay [1] and in assay [2] was greater than 512 mg/L each time.

As to `CCN1CCN(C(=O)NC(C(=O)N[C@H]2Cc3cccc(C(=O)O)c3OB2O)c2cc(OC)c(OC)c(OC)c2)C(=O)C1=O` (stereo partly drawn) [Example 30, (3R)-3-(2-(4-ethyl-2,3-dioxopiperazine-1-carboxamido)-2-(3,4,5-trimethoxyphenyl)acetamido)-2-hydroxy-3,4-dihydro-2H-benzo[e][1,2]oxaborinine-8-carboxylic acid], the MIC in assay [1] and in assay [2] was greater than 512 mg/L throughout.

For the compound `CCN1CCN(C(=O)C[C@@H](N)C(=O)N[C@H]2Cc3cccc(C(=O)O)c3OB2O)C(=O)C1=O` [Example 32, (R)-3-((R)-2-amino-4-(4-ethyl-2,3-dioxopiperazin-1-yl)-4-oxobutanamido)-2-hydroxy-3,4-dihydro-2H-benzo[e][1,2]oxaborinine-8-carboxylic acid], the MIC in assay [1] and in assay [2] was greater than 512 mg/L throughout.

With `CCN1CCN(C(=O)N[C@H](C(=O)N[C@H]2Cc3cccc(C(=O)O)c3OB2O)c2ccc(O)c(O)c2)C(=O)C1=O` [Example 38, (R)-3-((S)-2-(3,4-dihydroxyphenyl)-2-(4-ethyl-2,3-dioxopiperazine-1-carboxamido)acetamido)-2-hydroxy-3,4-dihydro-2H-benzo[e][1,2]oxaborinine-8-carboxylic acid], the concentration giving a half-maximal response (EC50) at E. coli PBP3 was in the range of 30 to 500 µM. The MIC in assay [1] and in assay [2] was 2 to 4 mg/L (≈ 3.7 to 7.4 µM) throughout.

For the compound `CCN1CCN(C(=O)N[C@@H](C(=O)N[C@@H]2C(=O)N3[C@@H]2SC(C)(C)[C@@H]3C(=O)O)c2ccccc2)C(=O)C1=O` [piperacillin, reference compound], in assay [1] (engineered E. coli DH5α with CTX-M15 vs empty vector control), the “MIC in CTX-M15 producer compared with parent strain with empty pLBII plasmid” value is listed as “weaker MICs in the CTX-M15 producer”. The “Microbiological Activity (MIC in mg/L), E. coli DH5α/pLBII-CTX-M15” value in assay [1] (engineered strain producing CTX-M15) is given as “B (B represents an MIC of 128 to 256 μg/mL)”. The “Microbiological Activity (MIC in mg/L), E. coli DH5α/pLBII” value in assay [2] is recorded as “F (F represents an MIC<1 μg/mL)”.
